In patent US20240239786A1, “COMPOSITIONS AND METHODS FOR THE TREATMENT AND PREVENTION OF CANCER” (Yale University, priority 2021, published 2024):

What was measured:
PEO1 cells = test: Flow cytometric EdU incorporation (DNA synthesis) assay, PEO1; format: cell-based; details: for cell cycle distribution: 30 μM DB4 or 1 μM triapine; for time-dependent inhibition of DNA synthesis (EdU-positive cells): 30 μM DB4 or 1 μM triapine, 3, 6, 24 hr
Experimental: Cells were plated for 24 hr and then treated with 50 μM compounds for 72 hr. For a positive control, cells were treated with 1 μM triapine for 72 hr. The percentage of cell survival was determined by the MTS cytotoxicity assay. […] Cells were treated with 50 μM compounds or 1 μM triapine for 24 hr. During the last hour, cells were pulse-labeled with EdU, stained with the Click-iT EdU Alexa Fluor 488 Assay Kit, counterstained with 7-AAD, and subsequently analyzed by flow cytometry. EdU-positive cells were gated to determine the percentage of the S phase cell population. The bivariate plots of Alexa Fluor 488 (EdU-positive) and PE-Cy5 (7-AAD-positive) are shown. […] Cells were treated with 50 μM compounds or 1 μM triapine for 24 hr. During the last hour, cells were pulse-labeled with EdU, stained with the Click-iT EdU Alexa Fluor 488 Assay Kit, counterstained with 7-AAD, and subsequently analyzed by flow cytometry. EdU-positive cells were gated to determine the percentage of the S phase cell population. The percentages of DNA synthesis in cells treated with each of 10 compounds and triapine relative to the DMSO-treated control is calculated and shown. FIG. 2D depicts representative results of dNTP measurement on triapine and DB4 in PEO4 cells. Cells were treated with 1 μM triapine or 50 μM DB4 for 24 hr. Cells were extracted with 65% methanol for determination of each of dNTPs expressed as pmole/10^6 cells. Data are means±SD (N=3). *, p<0.05; **, p<0.01; ***, p<0.001, compared with the DMSO-treated control in each dNTP. […] PEO1 cells were pre-treated with 1 mM dA plus […], 10 mM dC plus 10 mM dT, or all dNs for 1 hr and then treated with various concentrations of DB4 or triapine for 72 hr. The percentage of cell survival was determined by the MTS cytotoxicity assay. Data are means±SD (N=3). *, p<0.05; **, p<0.01; ***, p<0.001, compared with the control in each concentration of DB4 or triapine. FIG. 2F depicts schematic representation of structures and molecular compound names of triapine, DB4, and A4.
PEO1 cells were treated with 30 μM DB4 or 1 μM triapine for indicated times, pulsed with EdU for 1 hr and subsequently assayed for DNA synthesis inhibition as described in FIG. 2B. The bivariate plots of Alexa Fluor 488 and PE-Cy5 were gated to determine % S phase cells. […] PEO4 cells were treated with 30 μM DB4 or 1 μM triapine for indicated times, pulsed with EdU for 1 hr and subsequently assayed for DNA synthesis inhibition as described in FIG. 2B. The bivariate plots of Alexa Fluor 488 and PE-Cy5 were gated to determine % S phase cells. […] The bivariate plots of Alexa Fluor 488 and PE-Cy5 shown in FIG. 6A and FIG. 6B were gated to determine % cells in G1, S, and G2/M phases. […] PEO4 cells were treated with 30 μM DB4 or 1 μM triapine for various time periods and subjected to western blot analysis for the levels of cyclin A2, p-CDK1/2, p-H1, p-Chk1, and HSC70. The HSC70 protein level was used as a loading control. Cropped gel images of protein bands are presented. Cyclin A2, p-CDK1/2, and p-H1 bands were from re-probing the same blot. p-Chk1 and HSC70 bands were from re-probing the same duplicated blot. […] The CDK2 activity is expressed by the percentage of the p-HI levels relative to that of the 0 hr control is shown. […] Protein was analyzed by western blotting for p-Chk1, p-ATR, p-RPA32, γH2AX, and HSC70. Cropped gel images of protein bands are presented. All protein bands were from re-probing the same blot. DSB end resection is assessed by the level of p-RPA32. […]

CDK2 activity = test: Western blot time course of CDK2 activity in PEO4 cells; format: cell-based; details: for level of phosphorylated histone H1 (readout of CDK2 activity) / levels of cyclin A2 and CDK2 phosphorylation: 30 μM DB4 or 1 μM triapine; for levels of cyclin A2 and CDK2 phosphorylation: 24 hr
Experimental: PEO1 cells were treated with 30 μM DB4 or 1 μM triapine for indicated times, pulsed with EdU for 1 hr and subsequently assayed for DNA synthesis inhibition as described in FIG. 2B. The bivariate plots of Alexa Fluor 488 and PE-Cy5 were gated to determine % S phase cells. […] PEO4 cells were treated with 30 μM DB4 or 1 μM triapine for indicated times, pulsed with EdU for 1 hr and subsequently assayed for DNA synthesis inhibition as described in FIG. 2B. The bivariate plots of Alexa Fluor 488 and PE-Cy5 were gated to determine % S phase cells. […] The bivariate plots of Alexa Fluor 488 and PE-Cy5 shown in FIG. 6A and FIG. 6B were gated to determine % cells in G1, S, and G2/M phases. […] PEO4 cells were treated with 30 μM DB4 or 1 μM triapine for various time periods and subjected to western blot analysis for the levels of cyclin A2, p-CDK1/2, p-H1, p-Chk1, and HSC70. The HSC70 protein level was used as a loading control. Cropped gel images of protein bands are presented. Cyclin A2, p-CDK1/2, and p-H1 bands were from re-probing the same blot. p-Chk1 and HSC70 bands were from re-probing the same duplicated blot. […] The CDK2 activity is expressed by the percentage of the p-HI levels relative to that of the 0 hr control is shown. […] Protein was analyzed by western blotting for p-Chk1, p-ATR, p-RPA32, γH2AX, and HSC70. Cropped gel images of protein bands are presented. All protein bands were from re-probing the same blot. DSB end resection is assessed by the level of p-RPA32.
Additional studies focused on determining how DB4 inhibited CDK2 activity in comparison with triapine. […] In contrast, triapine increased the levels of cyclin A2 and CDK2 phosphorylation evidently at 24 hr. Because CDK2 phosphorylation is inhibitory, the level of phosphorylated histone H1, a substrate of CDK2, was determined as a readout of CDK2 activity (Lin Z P et al., 2014, Molecular Cancer Res, 12:381-393) to reconcile this discrepancy. […] The kinetics of CDK2 activity somewhat resembled to the level of DNA synthesis caused by DB4 and triapine.
The methodology was described previously (Lin Z P et al., 2014, Molecular Cancer Res, 12:381-393; Ratner E S et al., 2016, Br J Cancer, 114:777-786). The anti-HSC70 antibody was purchased from Santa Cruz (Santa Cruz, CA). Anti-cyclin A2, anti-phospho-ATR (Thr-1981), anti-phospho-Chk1 (Ser-345), anti-phospho-CDK1/2 (Tyr-15), and anti-Y-H2AX (Ser-139) antibodies were from Cell Signaling (Danvers, MA). Anti-phospho-RPA32 (S4/S8) and anti-BRCA2 antibodies were from Bethyl Laboratories (Montgomery, TX). Anti-phospho-histone H1 antibody was from Millipore-Sigma (Burlington, MA). To avoid the cross-reaction of secondary antibodies with previously probed primary antibodies, blots were stripped and re-probed with next primary antibodies raised in a different species in an alternate fashion. All images were acquired and processed using the G: BOX gel documentation system and the GeneSnap software (Syngene, Frederick, MD). Brightness and contrast of images were applied equally across the entire gel/blot image and to controls. Images of protein bands were cropped and only brightness-adjusted using the PowerPoint software (Microsoft, Redmond, WA). Quantification of the protein band intensity was performed using the ImageJ software (NIH, Bethesda, MD).

Structure (SMILES) | cell cycle distribution (PEO1 cells) | time-dependent inhibition of DNA synthesis (EdU-positive cells) (PEO1 cells) | level of phosphorylated histone H1 (readout of CDK2 activity) (CDK2 activity) | levels of cyclin A2 and CDK2 phosphorylation (CDK2 activity) | inhibition at 50 µM (PEO1 cells; Homo sapiens, 50 μM, 24 hr) [%] | Chk1 phosphorylation (CDK2 activity; time course, drug alone)
NC(=S)NN=Cc1ncccc1N [triapine, 3-aminopyridine-2-carboxaldehyde-thiosemicarbazone, reference compound] | expansion of the G2/M population | prompt reduction in EdU-positive cells | reduced the level of phosphorylated histone H1 earlier starting at 3 hr | increased |  | 
C=CCn1c(SCc2cccc(Cl)c2)nnc1C1CCN(Cc2nc3ccccc3s2)CC1 [DB4, 2-[(4-{4-allyl-5-[(3-chlorobenzyl)thio]-4H-1,2,4-triazol-3-yl}-1-piperidinyl)methyl]-1,3-benzothiazole] | expansion of the G2/M population | gradual decline in the EdU-positive cell population | down-regulation of phosphorylated histone H1 at 24 hr | downregulated | > 99 | did not induced Chk1 phosphorylation
